This is an account of results in US6034113A, “Derivatives of 1,3,4-oxadiazolone” (Bristol-Myers Squibb Company, priority 1999, dated 2000).

Series [1] in a line: Rapid screen of prodrug hydrolysis and drug release in plasma. It counts as in vitro ADME. The settings on record: 10 ug/mL in fresh rat plasma at 37° C.; stock 1 mg/mL in PEG-400; analysis 5 minutes after incubation. The method, then: A rapid screen to determine the ability of prodrugs to hydrolyze and release the drug (compound of Example 1) is conducted as follows. A 1 mg/mL stock solution of the prodrug is prepared in distilled water or acetonitrile or PEG-400. Plasma from freshly collected rat or human blood is used in this assay. To 1 mL of plasma at 37° C. was added 10 μL of stock solution of prodrug and mixed gently. Immediately after the mixing, 100 μL of plasma was removed and quenched with 300 μL of acetontrile (Zero time sample). Samples were also obtained at 30 minutes and quenched immediately. The quenched samples were centrifuged to obtain a clear supernatant for analysis. The stock solution, T=0 and T=30 samples were analyzed by a HPLC assay that separates the drug from the prodrug. Based on the relative peak areas of prodrug and drug in these samples, different prodrugs are characterized as fast, moderate and slow release agents. For example, in this model, the compound of Example 13 was dissolved in PEG-400 at a concentration of 1 mg/mL and incubated at 10 ug/mL in fresh rat plasma at 37° C.

In series [2] the test system is focal cerebral ischemia in the Wistar rat. The series is described as follows: Focal stroke model, permanent MCA/CCA occlusion. It counts as in vivo. The following applies: 1 mg/kg intravenously, single bolus two hours after MCA occlusion; measured 24 hours after MCAO; vs vehicle-treated (water) control. On the procedure:
To determine the ability of the compounds of the present invention to reduce cell loss resulting from neuronal ischemia, a standard focal cerebral ischemia is induced by permanent occlusion of the left middle cerebral artery (MCA) and common carotid artery (CCA) with one hour occlusion of the right CCA in the Wistar rat. The surgeries are performed using the sub-temporal approach of A. Tamura, et al., J. Cereb. Blood Flow Metab., 1, pp. 53-60, (1981) and its modifications [K. Osbome, et al., J. Neurol Neurosurg. Psychiatry, 50, pp. 402-410 (1987) and S. Menzies, et al., Neurosurgery, 31, pp. 100-107, (1992).]
The compound of Example 13 was evaluated in the focal stroke model involving permanent occlusion of the left MCA (MCAO) and CCA (CCAO) and temporary occlusion of the right CCA in the Wistar rat. This procedure results in a reliably large neocortical infarct volume that is measured by means of vital dye exclusion in serial slices through the brain 24 hours after MCAO. In the present test, compounds were administered using an i.v. or i.p. route of administration two hours after occlusion.

For series [3], the system named is cloned mammalian (mSlo or hSlo) BK. The experiment in a line: BK-mediated outward current, two-electrode voltage clamp in Xenopus oocytes. It counts as cell-based. The following applies: 1 μM; at least 5 oocytes; mSlo or hSlo expressed in Xenopus oocytes. The method, then:
(§1) The ability of the compound of Example 1 to open BK channels and increase whole-cell outward (K^+) BK-mediated currents was assessed under voltage-clamp conditions by determining their ability to increase cloned mammalian (mSlo or hSlo) BK--mediated outward current heterologously expressed in Xenopus oocytes [Butler, A., et al., Science, 261, pp. 221-224 (1993); and Dworetzky, S. I., et al., Mol. Brain Res., 27, pp.189-193 (1994)]. The two BK constructs employed represent nearly structurally identical homologous proteins, and have proven to be pharmacologically identical in our tests. To isolate BK current from native (background, non-BK) current, the specific and potent BK channel-blocking toxin iberiotoxin (IBTX) [Galvez, A., et al., J. Biol. Chem, 265, pp. 11083-11090 (1990)] was employed at a supramaximal concentration (50 nM). The relative contribution of BK channels current to total outward current was determined by subtraction of the current remaining in the presence of IBTX (non-BK current) from the current profiles obtained in all other experimental conditions (control, drug, and wash). […]
For orientation: In two-electrode clamp one electrode senses voltage and the other passes current.

The test system of series [4] is non-BK native currents in the oocytes. The experiment in a line: Effect on non-BK native currents (IBTX-insensitive) in oocytes. It counts as cell-based, Xenopus. The following applies: at the tested concentration; current remaining in presence of 50 nM IBTX. On the procedure:
as §1

`C[N+](C)(C)CCCC(=O)OCOc1ccc(Cl)cc1Cn1nc(-c2ccc(C(F)(F)F)cc2)oc1=O` [Example 13, 3-[[[[4-Chloro-2-[[5-[4-(trifluoromethyl)phenyl]-2,3-dihydro-2-oxo-1,3,4oxadiazol-3-yl]methyl]phenoxy]methoxy]carbonyl]propyl]trimethylammonium methanesulfonate]: the “conversion of prodrug to the compound of Example 1 in plasma” value in series [1] was “conversion of the compound of Example 13 to the compound of Example 1”. Moreover, the “reduction of cortical infarct volume” value in series [2] was “about 17%”.
Take `O=c1oc(-c2ccc(C(F)(F)F)cc2)nn1Cc1cc(Cl)ccc1O` [Example 1, 3-[(5-Chloro-2-hydroxyphenyl)methyl]-5-[4-(trifluoromethyl)phenyl]-1,3,4-oxadiazol-2(3H)-one]: the “increase of BK current, % of control of IBTX-sensitive current” value in series [3] is 126%. Further, the “effect on non-BK native currents in the oocytes” value in series [4] was “did not effect non-BK native currents”.
